# Measured values reported in patent US20190247376A1, “NICOTINIC ACETYLCHOLINE RECEPTOR AGONIST ATTENUATES ILC2-DEPENDENT AIRWAY HYPERREACTIVITY” (University of Southern California, priority 2016, published 2019).
# How the values were obtained:
# [1] = tested on: BALB/cByJ and α7nAChR−/− mice; experiment: IL-33-induced AHR in WT and α7nAChR-deficient mice; type: in vivo, mouse; conditions: rm-IL-33, agonist 125 μg days 1-3
# Experimental: FIGS. 4A-4E: α7nAChR expression is critical for GTS-21 action on ILC2s in vivo. BALB/cByJ and α7nAChR^−/− mice were intranasally challenged with rm-IL-33 or PBS, and also given α7nAChR agonist (125 μg) or PBS on days 1-3. Measurement of lung function and analysis of BAL followed on day 4. (FIG. 4A) Lung resistance. (FIG. 4B) Total number of eosinophils in BALF. (FIG. 4C) Rag^−/− GC^−/− mice were received ILC2s from either WT or α7nAChR^−/− mice. After the adoptive transfer, mice were intranasally challenged with rm-IL-33 or PBS; they also received α7nAChR agonist (125 μg) or PBS on days 1-3. Measurement of lung function and analysis of BAL followed on day 4, according to scheme 4C. (FIG. 4D) Lung resistance. (FIG. 4E) Total number of eosinophils in BALF. Data are representative of at least three independent experiments and are presented as means±SEM (n=4; Student's test ***, p<0.001, WT IL-33+α7nAChR agonist vs. α7nAChR^−/− IL-33+α7nAChR agonist).
# To assess whether the previously observed effects of GTS-21 are due to its actions on the α7nAChR, Applicants challenged WT and α7nAChR-deficient mice with or without rm-IL-33, and with or without α7nAChR agonist, for three consecutive days (FIGS. 4A-4B). As expected, in the WT mice, the agonist repressed IL-33-induced AHR and eosinophilic infiltration.
# Mice were intranasally (i.n.) administered carrier-free recombinant mouse IL-33 (BioLegend, San Diego Calif., 0.5 µg per mouse in 50 µL) with or without […] of α7nAChR agonist (kindly provided by Lin Chen) on three consecutive days. Mice were intranasally (i.n.) administered carrier-free recombinant mouse IL-25 (BioLegend, San Diego Calif., 5 µg per mouse in 50 µL) with or without […] of α7nAChR agonist on three consecutive days. For Alternaria alternata experiments, mice were i.n. administered Alternaria alternata (Greer Labs, Lenoir, N.C., 100 μg per mouse in 50 μL) with or without 125 µg α7nAChR agonist for four consecutive days. One day after the last challenge, mice were anesthetized using i.p. injection of ketamine (10 mg mL^−1) and xylazine (1 mg mL^−1). Measurements of airway resistance and dynamic compliance were conducted with the Fine Pointe RC System (Buxco Research Systems, Wilmington, N.C.), in which mice were mechanically ventilated using a modified version as previously described^36,67. Mice were sequentially challenged with aerosolized PBS (baseline), followed by increasing doses of methacholine. Maximum lung resistance (RL) and minimum compliance (Cdyn) values were recorded during a three-minute period after each methacholine challenge.
# [2] = target: T1, α7 subtype of nAChR (Homo sapiens, UniProt P36544); conditions: cited from earlier work
# T1 sequence (P36544 23-502): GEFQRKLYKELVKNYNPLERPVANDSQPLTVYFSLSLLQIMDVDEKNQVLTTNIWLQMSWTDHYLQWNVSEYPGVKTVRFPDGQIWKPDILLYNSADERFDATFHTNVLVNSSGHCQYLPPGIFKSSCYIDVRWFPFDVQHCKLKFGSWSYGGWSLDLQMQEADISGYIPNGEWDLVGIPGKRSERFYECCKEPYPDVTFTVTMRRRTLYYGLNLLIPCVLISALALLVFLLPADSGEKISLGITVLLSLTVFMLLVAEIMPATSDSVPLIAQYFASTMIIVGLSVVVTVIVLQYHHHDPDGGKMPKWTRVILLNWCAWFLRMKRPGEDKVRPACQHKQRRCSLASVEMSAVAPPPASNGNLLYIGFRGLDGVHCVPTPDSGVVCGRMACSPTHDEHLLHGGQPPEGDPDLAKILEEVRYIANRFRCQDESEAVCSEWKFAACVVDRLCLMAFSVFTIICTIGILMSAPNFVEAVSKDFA
# [3] = target: T1, α7 subtype of nAChR; conditions: cited from earlier work; remark: listed apart in the source
smiles,measurement,setting,value
"COc1ccc(/C=C2\CCCN=C2c2cccnc2)c(OC)c1 [GTS-21, 3-[(3E)-3-[(2,4-dimethoxyphenyl)methylidene]-5,6-dihydro-4H-pyridin-2-yl]pyridine]",IL-33-induced AHR,[1]; WT mice,repressed
same,eosinophilic infiltration,[1]; WT mice,repressed
same,IL-33-induced AHR,[1]; α7nAChR-deficient mice,affected neither AHR nor eosinophilia
same,eosinophilia,[1]; α7nAChR-deficient mice,affected neither AHR nor eosinophilia
same,binding to the α7 subtype,[2],binds
same,activation of nAChR subtypes,[3],activates only the α7 subtype to a significant extent
